Reference: the NIST ThermoML archive (doi:10.1021/acs.jced.7b00221)
± gives the expanded uncertainty stated by the source.

Assay: xn = mol fraction of the nth substance listed
Conditions: 100 kPa, Liquid; for viscosity: Cone and plate viscometry; for mass density: Vibrating tube method

CCCCCCCCCCCCCC[P+](CCCCCC)(CCCCCC)CCCCCC.N#Cc1ccc[n-]1 [trihexyl(tetradecyl)phosphonium 2-cyanopyrrolide] + CCCCCCn1cc[n+](C)c1C.O=S(=O)([N-]S(=O)(=O)C(F)(F)F)C(F)(F)F
viscosity [mPa·s]
Conditions | 278.15 K | 283.15 K | 288.15 K | 293.15 K | 298.15 K | 303.15 K | 308.15 K | 313.15 K | 318.15 K | 323.15 K
x1 = 0.1 | 701 ± 91 | 472 ± 60 | 328 ± 41 | 234 ± 29 | 173 ± 21 | 131 ± 16 | 102 ± 12 | 81 ± 10 | – | –
x1 = 0.201 | 895 ± 120 | 598 ± 78 | 411 ± 52 | 290 ± 36 | 212 ± 26 | 159 ± 19 | 122 ± 15 | 96 ± 12 | 77 ± 9 | 63 ± 8
x1 = 0.3 | 1056 ± 140 | 699 ± 91 | 474 ± 61 | 332 ± 42 | 240 ± 30 | 178 ± 22 | 136 ± 17 | 105 ± 13 | 83 ± 10 | 67 ± 8
x1 = 0.399 | 1356 ± 180 | 897 ± 120 | 607 ± 79 | 422 ± 54 | 304 ± 38 | 224 ± 28 | 169 ± 21 | 130 ± 16 | 103 ± 13 | 82 ± 10
x1 = 0.5 | 1594 ± 220 | 1048 ± 140 | 705 ± 92 | 488 ± 63 | 350 ± 44 | 257 ± 32 | 193 ± 24 | 148 ± 18 | 116 ± 14 | 93 ± 11
x1 = 0.601 | 1658 ± 230 | 1093 ± 150 | 734 ± 96 | 507 ± 65 | 361 ± 46 | 264 ± 33 | 197 ± 24 | 151 ± 18 | 117 ± 14 | 94 ± 11
x1 = 0.699 | 1745 ± 240 | 1141 ± 150 | 764 ± 100 | 527 ± 68 | 375 ± 47 | 273 ± 34 | 204 ± 25 | 155 ± 19 | 120 ± 15 | 96 ± 12
x1 = 0.799 | 1868 ± 260 | 1221 ± 160 | 820 ± 110 | 566 ± 73 | 403 ± 51 | 294 ± 37 | 219 ± 27 | 167 ± 20 | 130 ± 16 | 103 ± 13
x1 = 0.902 | 1930 ± 270 | 1279 ± 170 | 867 ± 110 | 602 ± 78 | 430 ± 55 | 315 ± 40 | 237 ± 29 | 180 ± 22 | 141 ± 17 | 112 ± 14
x1 = 1 | 1764 ± 240 | 1179 ± 160 | 804 ± 110 | 563 ± 73 | 404 ± 51 | 297 ± 37 | 223 ± 28 | 170 ± 21 | 133 ± 16 | 106 ± 13

CCCCCCn1cc[n+](C)c1.O=[N+]([O-])c1cn[n-]c1 [1-hexyl-3-methylimidazolium 4-nitropyrazolide] + CCCCCCCCCCCCCC[P+](CCCCCC)(CCCCCC)CCCCCC.O=S(=O)([N-]S(=O)(=O)C(F)(F)F)C(F)(F)F
Conditions | mass density, x1 = 0.25 [kg/m3] | mass density, x1 = 0.5 [kg/m3] | mass density, x1 = 0.749 [kg/m3] | viscosity, x1 = 0.101 [mPa·s] | viscosity, x1 = 0.299 [mPa·s] | viscosity, x1 = 0.5 [mPa·s] | viscosity, x1 = 0.7 [mPa·s] | viscosity, x1 = 0.9 [mPa·s]
278.15 K | – | – | – | 1201 ± 160 | 1360 ± 180 | 1582 ± 220 | 2039 ± 280 | 2649 ± 380
283.15 K | 1081.8 ± 4 | 1090.7 ± 4 | 1105.6 ± 4 | 816 ± 110 | 914 ± 120 | 1045 ± 140 | 1290 ± 180 | 1540 ± 210
288.15 K | 1078.2 ± 4 | 1087.1 ± 4 | 1102 ± 4 | 570 ± 74 | 629 ± 82 | 707 ± 92 | 840 ± 110 | 935 ± 120
293.15 K | 1074.6 ± 4 | 1083.6 ± 4 | 1098.5 ± 4 | 410 ± 52 | 445 ± 57 | 492 ± 63 | 566 ± 73 | 597 ± 77
295.15 K | 1073.1 ± 4 | 1082.2 ± 4 | 1097.2 ± 4 | – | – | – | – | –
298.15 K | 1071 ± 4 | 1080.1 ± 4 | 1095.2 ± 4 | 302 ± 38 | 323 ± 41 | 352 ± 44 | 395 ± 50 | 400 ± 51
303.15 K | 1067.4 ± 4 | 1076.6 ± 4 | 1091.7 ± 4 | 228 ± 28 | 241 ± 30 | 259 ± 32 | 285 ± 36 | 278 ± 35
308.15 K | 1063.8 ± 4 | 1073.1 ± 4 | 1088.3 ± 4 | 175 ± 21 | 184 ± 23 | 195 ± 24 | 211 ± 26 | 200 ± 25
313.15 K | 1060.3 ± 4 | 1069.6 ± 4 | 1084.9 ± 4 | 138 ± 17 | 142 ± 17 | 150 ± 18 | 160 ± 20 | 149 ± 18
318.15 K | 1056.8 ± 4 | 1066.2 ± 4 | 1081.6 ± 4 | 110 ± 13 | 113 ± 14 | 118 ± 14 | 124 ± 15 | 113 ± 14
323.15 K | 1053.4 ± 4 | 1062.8 ± 4 | 1078.3 ± 4 | 90 ± 11 | 91 ± 11 | 94 ± 11 | 99 ± 12 | 89 ± 11
328.15 K | 1049.9 ± 4 | 1059.4 ± 4 | 1075 ± 4 | – | – | – | – | –
333.15 K | 1046.4 ± 4 | 1056 ± 4 | 1071.7 ± 4 | – | – | – | – | –
338.15 K | 1042.9 ± 4 | 1052.6 ± 4 | 1068.3 ± 4 | – | – | – | – | –
343.15 K | 1039.4 ± 4 | 1049.2 ± 4 | 1065 ± 4 | – | – | – | – | –
348.15 K | 1035.9 ± 4 | 1045.8 ± 4 | 1061.7 ± 4 | – | – | – | – | –
353.15 K | 1032.5 ± 4 | 1042.4 ± 4 | 1058.5 ± 4 | – | – | – | – | –
